Experimental findings from ChEMBL document CHEMBL1128307, “2-Aralkynyl and 2-heteroalkynyl derivatives of adenosine-5'-N-ethyluronamide as selective A2a adenosine receptor agonists” (J Med Chem, 1995) are described below.

The target in data set [1] is T1, Adenosine receptor A2a (Rattus norvegicus, UniProt P30543).
Description: Functional activity against adenosine A2a receptor from rat aorta.
The target of data set [2] is T2, Adenosine receptor A1 (Rattus norvegicus, UniProt P25099).
T2 sequence (P25099 whole entry): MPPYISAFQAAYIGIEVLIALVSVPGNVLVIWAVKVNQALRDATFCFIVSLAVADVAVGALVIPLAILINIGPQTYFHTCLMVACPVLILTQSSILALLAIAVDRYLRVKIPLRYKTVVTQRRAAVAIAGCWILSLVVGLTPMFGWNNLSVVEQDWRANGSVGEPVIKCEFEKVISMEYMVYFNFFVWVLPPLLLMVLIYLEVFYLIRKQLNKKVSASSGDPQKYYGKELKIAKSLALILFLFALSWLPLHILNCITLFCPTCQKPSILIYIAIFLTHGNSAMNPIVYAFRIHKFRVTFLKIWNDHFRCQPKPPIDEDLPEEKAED
Description: Binding affinity against adenosine A1 receptor from rat brain using [3H]CHA as a radioligand.

The target of data set [3] is T2, Adenosine receptor A1. Description: Functional activity against adenosine A1 receptor from rat atria.
For data set [4], the target named is T1, Adenosine receptor A2a. This is another data set of the same source.
Data set [5] can be described thus: Hydrophobicity index (k'') (RP-HPLC pH 7.5). Format: ADME.
In data set [6] the target is T1, Adenosine receptor A2a. Description: Functional activity against A2a adenosine receptor from rat aorta.

In general, EC50 refers to the midpoint of the concentration-response curve. High values mean a less potent agent, low ones a more potent agent. The Ki is a dissociation constant, usually derived from enzyme kinetics or from competition with a known ligand. Lower therefore signals higher affinity.

Some results are limits rather than exact numbers.

T1 sequence (P30543 whole entry): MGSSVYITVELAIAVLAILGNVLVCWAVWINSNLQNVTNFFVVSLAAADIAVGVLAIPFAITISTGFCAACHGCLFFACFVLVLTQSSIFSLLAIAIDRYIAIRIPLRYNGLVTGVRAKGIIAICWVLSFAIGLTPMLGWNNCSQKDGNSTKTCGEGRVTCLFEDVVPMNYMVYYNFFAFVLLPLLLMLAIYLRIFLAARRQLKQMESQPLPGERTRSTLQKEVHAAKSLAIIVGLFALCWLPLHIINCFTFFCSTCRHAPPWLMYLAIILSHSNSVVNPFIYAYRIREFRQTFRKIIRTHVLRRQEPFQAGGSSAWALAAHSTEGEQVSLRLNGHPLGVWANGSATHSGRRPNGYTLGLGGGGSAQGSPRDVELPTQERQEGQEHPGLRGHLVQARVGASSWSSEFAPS

In the case of `CCNC(=O)[C@H]1OC(n2cnc3c(N)nc(C#Cc4ccc(O)cc4)nc32)[C@H](O)[C@@H]1O` (stereo not given in full), the EC50 at Adenosine receptor A2a [1] was 660 nM; on Adenosine receptor A1 [3], above 10000 nM. The Ki at Adenosine receptor A1 [2] was 497 nM; on Adenosine receptor A2a [4] it was 20.6 nM. Besides, the “k'” value in data set [5] is on record as 0.66.
In the case of `CCNC(=O)[C@H]1OC(n2cnc3c(N)nc(C#Cc4ccc(C(C)=O)cc4)nc32)[C@H](O)[C@@H]1O` (stereo not given in full), the EC50 on Adenosine receptor A2a [1] is 1670 nM; at Adenosine receptor A1 [3] it was above 10000 nM. Further, the values for the inhibition constant (Ki) on Adenosine receptor A1 [2] and on Adenosine receptor A2a [4] were above 10000 nM and 187 nM, respectively. Moreover, the “k'” value in data set [5] is reported as 1.18.
Consider `CCNC(=O)[C@H]1OC(n2cnc3c(N)nc(C#Cc4cccs4)nc32)[C@H](O)[C@@H]1O` (stereo not given in full), for which the concentration for a half-maximal effect (EC50) is 227 nM on Adenosine receptor A2a [6] and above 10000 nM at Adenosine receptor A1 [3]. Further, the Ki is 597 nM at Adenosine receptor A1 [2] and 19.5 nM on Adenosine receptor A2a [4]. In addition, in data set [5], the “k'” value is reported as 1.63.
`CCNC(=O)[C@H]1OC(n2cnc3c(N)nc(C#Cc4ccc(OC)cc4)nc32)[C@H](O)[C@@H]1O` (stereo not given in full): the EC50 on Adenosine receptor A2a [1] is 3480 nM; at Adenosine receptor A1 [3], above 10000 nM. Besides, the Ki was determined as 414 nM at Adenosine receptor A1 [2] and 52.4 nM on Adenosine receptor A2a [4]. Besides, the “k'” value in data set [5] was determined as 2.15.
Regarding `CCNC(=O)[C@H]1OC(n2cnc3c(N)nc(C#Cc4cccc5ccccc45)nc32)[C@H](O)[C@@H]1O` (stereo not given in full), the EC50 at Adenosine receptor A2a [1] is 468 nM; on Adenosine receptor A1 [3], above 10000 nM. Besides, the Ki at Adenosine receptor A1 [2] was 4460 nM; at Adenosine receptor A2a [4], 488 nM. Besides, the “k'” value in data set [5] is listed as 5.49.
Regarding `CCNC(=O)[C@H]1OC(n2cnc3c(N)nc(C#Cc4nccs4)nc32)[C@H](O)[C@@H]1O` (stereo not given in full), the concentration for a half-maximal effect (EC50) on Adenosine receptor A2a [1] was determined as 28.7 nM; at Adenosine receptor A1 [3], 7160 nM. In addition, the inhibitory constant (Ki) at Adenosine receptor A1 [2] was determined as 85.4 nM; at Adenosine receptor A2a [4], 41.3 nM. Further, in data set [5], the “k'” value is listed as 0.55.
Turning to `CCNC(=O)[C@H]1OC(n2cnc3c(N)nc(C#Cc4ccccc4C=O)nc32)[C@H](O)[C@@H]1O` (stereo not given in full), the 50% effective concentration (EC50) at Adenosine receptor A2a [1] was 1300 nM; on Adenosine receptor A1 [3], above 10000 nM. The Ki came out at 6860 nM at Adenosine receptor A1 [2] and 1160 nM on Adenosine receptor A2a [4]. The “k'” value in data set [5] worked out at 1.14.
On the same counts, the results for `CCNC(=O)[C@H]1OC(n2cnc3c(N)nc(C#CCn4ccnc4)nc32)[C@H](O)[C@@H]1O` (stereo not given in full) are 753 nM, 3140 nM, 178 nM, 16.5 nM and 0.22.
